From patent US20140057915A1, “KINASE INHIBITORS” (TOPIVERT PHARMA LIMITED, priority 2012, published 2014)

Experiments:
[1] = tested on: IL-8 release, d-U937 cells; assay: LPS-induced IL-8 release in d-U937 cells; type: cell-based; settings: Homo sapiens, dU937; Table 4c1; read-out: LPS Induced Release of Cytokine in d-U937 Cells, IL-8 IC50
In short: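 IL-8 release after a 4 hr challenge with LPS (0.1 μg/mL, E. coli 0111:B4) following a 2 hr compound pretreatment. Cells were human U937 monocytes differentiated to macrophage-type with PMA 100 ng/mL for 48–72 hr. Relative 50% effective concentration derived from concentration–response data.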

cSrc = cSrc (Homo sapiens, UniProt P12931); assay: c-Src enzyme inhibition (FRET); type: biochemical; settings: Table 4a1
In short: (§1)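 2 hr RT enzyme + cpd (added solns 4/0.4/0.04/0.004 μg/mL); + FRET peptide (8 μM soln) + ATP soln (c-Src 800 μM, Syk 60 μM), 1 hr; protease development 1 hr; read donor/acceptor emission ratio.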

GSK3α = GSK3α (Homo sapiens, UniProt P49840); assay: GSK 3α enzyme inhibition (FRET), Method 1; type: biochemical; settings: Table 4a1
In short: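 Z-LYTE FRET format. Enzyme (500 ng/mL stock) + compound (stocks 4–0.004 μg/mL), 2 hr RT; add peptide (8 μM stock) + ATP (40 μM stock), 1 hr; protease 1 hr; read donor/acceptor emission ratio.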

d-U937 cells = assay: Cell viability: MTT assay; type: cell-based, human; settings: 1 μg/mL
In short: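 Differentiated U937 cells exposed to compound at 1 or 10 μg/mL, either 4 h in 5% FCS or 24 h in 10% FCS RPMI1640. MTT then added for 1 h, formazan dissolved in DMSO and read at 550 nm. Viability loss given as % versus 0.5% DMSO vehicle; apparent gains appear negative.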

[2] = tested on: ICAM-1 expression, BEAS2B cells; assay: Poly I:C-induced ICAM-1 expression in BEAS2B cells; type: cell-based; settings: Homo sapiens, BEAS-2B; read-out: Poly IC induced ICAM1 in BEAS2B, IC50
In short: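 BEAS2B human bronchial epithelial cells pre-incubated 2 h with compound, then transfected with poly I:C (1 μg/mL) plus Oligofectamine. After 18 h, cell-surface ICAM-1 read by cell-based ELISA (A450–655), normalised to Crystal Violet cell number (A595); inhibition calculated against vehicle control at each concentration.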

Syk = Syk (Homo sapiens, UniProt P43405); assay: Syk enzyme inhibition (FRET); type: biochemical; settings: Table 4a1
In short: as §1

[3] = tested on: TNFα release, d-U937 cells; assay: LPS-induced TNFα release in d-U937 cells; type: cell-based; settings: Homo sapiens, dU937; relative to 10 μg/mL BIRB796; Table 4c1; read-out: LPS Induced Release of Cytokine in d-U937 Cells, TNFα REC50
In short: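 U937 cells differentiated with PMA (100 ng/mL, 48–72 hr), pre-treated with compound for 2 hr, then stimulated with E. coli LPS (0.1 μg/mL) for 4 hr. Supernatant cytokine measured by sandwich ELISA; inhibition versus vehicle control, REC50 from concentration-response curve.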

Chain of GSK3α (P49840 whole entry): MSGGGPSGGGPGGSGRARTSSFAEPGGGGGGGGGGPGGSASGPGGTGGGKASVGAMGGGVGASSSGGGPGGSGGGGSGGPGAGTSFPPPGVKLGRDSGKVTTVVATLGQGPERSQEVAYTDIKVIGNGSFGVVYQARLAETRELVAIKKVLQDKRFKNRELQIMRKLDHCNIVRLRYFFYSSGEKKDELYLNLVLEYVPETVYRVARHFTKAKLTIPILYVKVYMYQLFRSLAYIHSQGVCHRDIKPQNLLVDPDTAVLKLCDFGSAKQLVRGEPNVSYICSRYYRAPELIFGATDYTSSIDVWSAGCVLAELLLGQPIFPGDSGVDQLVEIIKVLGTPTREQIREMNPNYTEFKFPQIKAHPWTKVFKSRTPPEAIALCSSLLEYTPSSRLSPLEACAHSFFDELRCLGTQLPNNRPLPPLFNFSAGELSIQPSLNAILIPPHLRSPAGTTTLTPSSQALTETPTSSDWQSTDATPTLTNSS
Chain of cSrc (P12931 whole entry): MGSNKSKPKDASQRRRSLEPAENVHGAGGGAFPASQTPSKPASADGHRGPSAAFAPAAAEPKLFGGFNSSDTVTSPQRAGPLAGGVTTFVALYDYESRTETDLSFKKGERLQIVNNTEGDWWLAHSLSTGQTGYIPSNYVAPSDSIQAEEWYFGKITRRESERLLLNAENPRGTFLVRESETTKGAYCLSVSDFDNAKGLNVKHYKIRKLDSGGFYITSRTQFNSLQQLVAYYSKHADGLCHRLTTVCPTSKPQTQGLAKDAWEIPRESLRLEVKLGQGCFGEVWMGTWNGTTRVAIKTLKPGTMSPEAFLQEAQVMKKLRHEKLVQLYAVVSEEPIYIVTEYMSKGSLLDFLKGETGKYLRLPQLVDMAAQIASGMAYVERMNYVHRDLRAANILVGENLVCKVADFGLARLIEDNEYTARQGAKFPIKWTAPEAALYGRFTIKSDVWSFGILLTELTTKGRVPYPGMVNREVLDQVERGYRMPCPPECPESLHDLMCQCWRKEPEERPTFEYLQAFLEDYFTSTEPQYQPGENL

| Structure (SMILES) | IC50 [1] [nM] | IC50 (cSrc) [nM] | IC50 (GSK3α) [nM] | IC50 (Syk) [nM] | EC50 [3] [nM] | Cell viability at time point in d-U937 cells, 4 h (d-U937 cells) | Cell viability at time point in d-U937 cells, 24 h (d-U937 cells) | IC50 [2] [nM] |
| --- | --- | --- | --- | --- | --- | --- | --- | --- |
| Cc1ccc(-n2nc(C(C)(C)C)cc2NC(=O)Nc2ccc(Oc3ccnc(Nc4cccc(C(=O)NCCN5CCOCC5)c4)n3)c3ccccc23)cc1 [Example 3, 3-((4-((4-(3-(3-(tert-Butyl)-1-(p-tolyl)-1H-pyrazol-5-yl)ureido)naphthalen-1-yl)oxy)pyrimidin-2-yl)amino)-N-(2-morpholinoethyl)benzamide] | 1.6 | 1 | 286 | 11 | 0.6 | −ve (−ve and +ve indicate that the value is below and above respectively, the no significant effect threshold, defined as 30% inhibition at 1 μg/mL at the time point indicated) | −ve (−ve and +ve indicate that the value is below and above respectively, the no significant effect threshold, defined as 30% inhibition at 1 μg/mL at the time point indicated) | 0.7 |
| COc1cc(Nc2nccc(Oc3ccc(NC(=O)Nc4cc(C(C)C)nn4-c4ccc(C)cc4)c4ccccc34)n2)cc(C(=O)N(C)CCN2CCOCC2)c1 [Example 68, 3-((4-((4-(3-(3-isopropyl-1-(p-tolyl)-1H-pyrazol-5-yl)ureido)naphthalen-1-yl)oxy)pyrimidin-2-yl)amino)-5-methoxy-N-methyl-N-(2-morpholinoethyl)benzamide] | 0.5 | < 1 | 111 | 2 | 0.2 | −ve (−ve and +ve indicate that the value is below and above respectively, the no significant effect threshold, defined as 30% inhibition at 1 μg/mL at the time point indicated) | −ve (−ve and +ve indicate that the value is below and above respectively, the no significant effect threshold, defined as 30% inhibition at 1 μg/mL at the time point indicated) | 3.9 |
| Cc1ccc(-n2nc(C(C)(C)C)cc2NC(=O)Nc2ccc(Oc3ccnc(Nc4cccc(C(=O)NCCN5CCN(C)CC5)c4)n3)c3ccccc23)cc1 [Example 25, 3-((4-((4-(3-(3-(tert-butyl)-1-(p-tolyl)-1H-pyrazol-5-yl)ureido)naphthalen-1-yl)oxy)pyrimidin-2-yl)amino)-N-(2-(4-methylpiperazin-1-yl)ethyl)benzamide] | 1.5 | 4 | 285 | > 1330 | 0.6 | −ve (−ve and +ve indicate that the value is below and above respectively, the no significant effect threshold, defined as 30% inhibition at 1 μg/mL at the time point indicated) | −ve (−ve and +ve indicate that the value is below and above respectively, the no significant effect threshold, defined as 30% inhibition at 1 μg/mL at the time point indicated) | 1.9 |
| COc1ccc(-n2nc(C(C)C)cc2NC(=O)Nc2ccc(Oc3ccnc(Nc4cc(C(=O)NCCO)ccc4OC)n3)c3ccccc23)cc1 [Example 34, N-(2-hydroxyethyl)-3-((4-((4-(3-(3-isopropyl-1-(4-methoxyphenyl)-1H-pyrazol-5-yl)ureido)naphthalen-1-yl)oxy)pyrimidin-2-yl)amino)-4-methoxybenzamide] | 73.5 | 2 | > 14200 | 85 | 14.2 | +ve (−ve and +ve indicate that the value is below and above respectively, the no significant effect threshold, defined as 30% inhibition at 1 μg/mL at the time point indicated) | −ve (−ve and +ve indicate that the value is below and above respectively, the no significant effect threshold, defined as 30% inhibition at 1 μg/mL at the time point indicated) | 79.9 |
| COc1cc(Nc2cc(Oc3ccc(NC(=O)Nc4cc(C(C)C)nn4-c4ccc(C)cc4)c4ccccc34)ncn2)cc(C(=O)NCCN2CCOCC2)c1 [Example 71, 3-((6-((4-(3-(3-isopropyl-1-(p-tolyl)-1H-pyrazol-5-yl)ureido)naphthalen-1-yl)oxy)pyrimidin-4-yl)amino)-5-methoxy-N-(2-morpholinoethyl)benzamide] | 1.9 | < 1 | 5770 | 547 | 2.7 | −ve (−ve and +ve indicate that the value is below and above respectively, the no significant effect threshold, defined as 30% inhibition at 1 μg/mL at the time point indicated) | −ve (−ve and +ve indicate that the value is below and above respectively, the no significant effect threshold, defined as 30% inhibition at 1 μg/mL at the time point indicated) | 7.3 |
| COc1cc(Nc2nccc(Oc3ccc(NC(=O)Nc4cc(C(C)C)nn4-c4ccc(C)cc4)c4ccccc34)n2)cc(C(=O)N2CCN(C)CC2)c1 [Example 69, 1-(3-isopropyl-1-(p-tolyl)-1H-pyrazol-5-yl)-3-(4-((2-((3-methoxy-5-(4-methylpiperazine-1-carbonyl)phenyl)amino)pyrimidin-4-yl)oxy)naphthalen-1-yl)urea] | 0.3 | 1 | 282 | 8 | 0.2 | −ve (−ve and +ve indicate that the value is below and above respectively, the no significant effect threshold, defined as 30% inhibition at 1 μg/mL at the time point indicated) | −ve (−ve and +ve indicate that the value is below and above respectively, the no significant effect threshold, defined as 30% inhibition at 1 μg/mL at the time point indicated) | 7.5 |

The next lines start with results.

| IC50 [1] [nM] | IC50 (cSrc) [nM] | IC50 (GSK3α) [nM] | IC50 (Syk) [nM] | EC50 [3] [nM] | Structure (SMILES) | Cell viability at time point in d-U937 cells, 4 h (d-U937 cells) | Cell viability at time point in d-U937 cells, 24 h (d-U937 cells) | IC50 [2] [nM] |
| --- | --- | --- | --- | --- | --- | --- | --- | --- |
| 6.8 | < 1 | 1190 | 12 | 2 | COc1ccc(-n2nc(C3CCOC3)cc2NC(=O)Nc2ccc(Oc3ccnc(Nc4cc(OC)cc(C(=O)NCCN5CCOCC5)c4)n3)c3ccccc23)cc1 (stereo not drawn) [Example 59, 3-methoxy-5-((4-((4-(3-(1-(4-methoxyphenyl)-3-(tetrahydrofuran-3-yl)-1H-pyrazol-5-yl)ureido)naphthalen-1-yl)oxy)pyrimidin-2-yl)amino)-N-(2-morpholinoethyl)benzamide] | −ve (−ve and +ve indicate that the value is below and above respectively, the no significant effect threshold, defined as 30% inhibition at 1 μg/mL at the time point indicated) | −ve (−ve and +ve indicate that the value is below and above respectively, the no significant effect threshold, defined as 30% inhibition at 1 μg/mL at the time point indicated) | 39.7 |
| 17.1 | < 2 | > 14600 | 152 | 3.1 | COc1ccc(C(=O)NCCO)cc1Nc1nccc(Oc2ccc(NC(=O)Nc3cc(C(C)C)nn3-c3ccc(C)cc3)c3ccccc23)n1 [Example 32, N-(2-hydroxyethyl)-3-((4-((4-(3-(3-isopropyl-1-(p-tolyl)-1H-pyrazol-5-yl)ureido)naphthalen-1-yl)oxy)pyrimidin-2-yl)amino)-4-methoxybenzamide] | −ve (−ve and +ve indicate that the value is below and above respectively, the no significant effect threshold, defined as 30% inhibition at 1 μg/mL at the time point indicated) | −ve (−ve and +ve indicate that the value is below and above respectively, the no significant effect threshold, defined as 30% inhibition at 1 μg/mL at the time point indicated) | 86.7 |
| 24.1 | 27 | > 13000 | 149 | 3.7 | COc1cc(C(=O)NCCN2CCOCC2)ccc1Nc1nccc(Oc2ccc(NC(=O)Nc3cc(C(C)(C)C)nn3-c3ccc(C)cc3)c3ccccc23)n1 [Example 37, 4-((4-((4-(3-(3-(tert-butyl)-1-(p-tolyl)-1H-pyrazol-5-yl)ureido)naphthalen-1-yl)oxy)pyrimidin-2-yl)amino)-3-methoxy-N-(2-morpholinoethyl)benzamide] | −ve (−ve and +ve indicate that the value is below and above respectively, the no significant effect threshold, defined as 30% inhibition at 1 μg/mL at the time point indicated) | −ve (−ve and +ve indicate that the value is below and above respectively, the no significant effect threshold, defined as 30% inhibition at 1 μg/mL at the time point indicated) | 19.6 |
